Measured values taken from the NIST ThermoML archive (doi:10.1016/j.tca.2013.07.012).

Experiment: xn = mol fraction of the nth substance listed
Conditions: 101 kPa, Liquid, Vibrating tube method

OCC(O)CO [glycerol] + O
Conditions | mass density [kg/m3]
274.15 K, x1 = 0.00209 | 1002.52
274.15 K, x1 = 0.00439 | 1005.4
274.15 K, x1 = 0.0051 | 1006.27
274.15 K, x1 = 0.00657 | 1008.08
274.15 K, x1 = 0.01072 | 1013.09
274.15 K, x1 = 0.01633 | 1019.67
275.15 K, x1 = 0.00209 | 1002.55
275.15 K, x1 = 0.00439 | 1005.42
275.15 K, x1 = 0.0051 | 1006.29
275.15 K, x1 = 0.00657 | 1008.09
275.15 K, x1 = 0.01072 | 1013.08
275.15 K, x1 = 0.01633 | 1019.63
276.15 K, x1 = 0.00209 | 1002.56
276.15 K, x1 = 0.00439 | 1005.42
276.15 K, x1 = 0.0051 | 1006.29
276.15 K, x1 = 0.00657 | 1008.08
276.15 K, x1 = 0.01072 | 1013.06
276.15 K, x1 = 0.01633 | 1019.58
277.15 K, x1 = 0.00209 | 1002.56
277.15 K, x1 = 0.00439 | 1005.41
277.15 K, x1 = 0.0051 | 1006.27
277.15 K, x1 = 0.00657 | 1008.06
277.15 K, x1 = 0.01072 | 1013.02
277.15 K, x1 = 0.01633 | 1019.51
278.15 K, x1 = 0.00209 | 1002.54
278.15 K, x1 = 0.00439 | 1005.38
278.15 K, x1 = 0.0051 | 1006.24
278.15 K, x1 = 0.00657 | 1008.02
278.15 K, x1 = 0.01072 | 1012.95
278.15 K, x1 = 0.01633 | 1019.43
278.15 K, x1 = 0.03504 | 1039.54
278.15 K, x1 = 0.05086 | 1054.94
278.15 K, x1 = 0.06775 | 1069.92
278.15 K, x1 = 0.1127 | 1103.61
278.15 K, x1 = 0.1559 | 1129.3
278.15 K, x1 = 0.206 | 1153.22
278.15 K, x1 = 0.256 | 1172.3
278.15 K, x1 = 0.3311 | 1194.33
278.15 K, x1 = 0.4012 | 1210
278.15 K, x1 = 0.4907 | 1225.46
278.15 K, x1 = 0.5828 | 1237.72
278.15 K, x1 = 0.6857 | 1248.63
278.15 K, x1 = 0.7494 | 1254.28
278.15 K, x1 = 0.8101 | 1259.12
278.15 K, x1 = 0.8528 | 1262.2
278.15 K, x1 = 0.882 | 1264.21
278.15 K, x1 = 0.9143 | 1266.2
278.15 K, x1 = 0.9408 | 1267.71
278.15 K, x1 = 0.9578 | 1268.67
278.15 K, x1 = 0.9792 | 1269.86
278.15 K, x1 = 0.9895 | 1270.39
278.15 K, x1 = 1 | 1270.87
279.15 K, x1 = 0.00209 | 1002.51
279.15 K, x1 = 0.00439 | 1005.34
279.15 K, x1 = 0.0051 | 1006.19
279.15 K, x1 = 0.00657 | 1007.97
279.15 K, x1 = 0.01072 | 1012.88
279.15 K, x1 = 0.01633 | 1019.34
280.15 K, x1 = 0.00209 | 1002.46
280.15 K, x1 = 0.00439 | 1005.28
280.15 K, x1 = 0.0051 | 1006.13
280.15 K, x1 = 0.00657 | 1007.91
280.15 K, x1 = 0.01072 | 1012.8
280.15 K, x1 = 0.01633 | 1019.23
281.15 K, x1 = 0.00209 | 1002.4
281.15 K, x1 = 0.00439 | 1005.21
281.15 K, x1 = 0.0051 | 1006.06
281.15 K, x1 = 0.00657 | 1007.82
281.15 K, x1 = 0.01072 | 1012.7
281.15 K, x1 = 0.01633 | 1019.12
282.15 K, x1 = 0.00209 | 1002.33
282.15 K, x1 = 0.00439 | 1005.13
282.15 K, x1 = 0.0051 | 1005.97
282.15 K, x1 = 0.00657 | 1007.73
282.15 K, x1 = 0.01072 | 1012.6
282.15 K, x1 = 0.01633 | 1018.99
283.15 K, x1 = 0.00209 | 1002.24
283.15 K, x1 = 0.00439 | 1005.03
283.15 K, x1 = 0.0051 | 1005.87
283.15 K, x1 = 0.00657 | 1007.62
283.15 K, x1 = 0.01072 | 1012.47
283.15 K, x1 = 0.01633 | 1018.85
288.15 K, x1 = 0.00209 | 1001.6
288.15 K, x1 = 0.00439 | 1004.35
288.15 K, x1 = 0.0051 | 1005.18
288.15 K, x1 = 0.00657 | 1006.91
288.15 K, x1 = 0.01072 | 1011.69
288.15 K, x1 = 0.01633 | 1017.97
288.15 K, x1 = 0.03504 | 1037.45
288.15 K, x1 = 0.05086 | 1052.38
288.15 K, x1 = 0.06775 | 1066.9
288.15 K, x1 = 0.1127 | 1099.65
288.15 K, x1 = 0.1559 | 1124.77
288.15 K, x1 = 0.206 | 1148.15
288.15 K, x1 = 0.256 | 1166.85
288.15 K, x1 = 0.3311 | 1188.67
288.15 K, x1 = 0.4012 | 1204.31
288.15 K, x1 = 0.4907 | 1219.67
288.15 K, x1 = 0.5828 | 1231.79
288.15 K, x1 = 0.6857 | 1242.54
288.15 K, x1 = 0.7494 | 1248.04
288.15 K, x1 = 0.8101 | 1252.82
288.15 K, x1 = 0.8528 | 1255.81
288.15 K, x1 = 0.882 | 1257.79
288.15 K, x1 = 0.9143 | 1259.78
288.15 K, x1 = 0.9408 | 1261.27
288.15 K, x1 = 0.9578 | 1262.21
288.15 K, x1 = 0.9792 | 1263.39
288.15 K, x1 = 0.9895 | 1263.91
288.15 K, x1 = 1 | 1264.4
293.15 K, x1 = 0.00209 | 1000.68
293.15 K, x1 = 0.00439 | 1003.39
293.15 K, x1 = 0.0051 | 1004.21
293.15 K, x1 = 0.00657 | 1005.92
293.15 K, x1 = 0.01072 | 1010.64
293.15 K, x1 = 0.01633 | 1016.84
293.15 K, x1 = 0.03504 | 1036.06
293.15 K, x1 = 0.05086 | 1050.82
293.15 K, x1 = 0.06775 | 1065.15
293.15 K, x1 = 0.1127 | 1097.5
293.15 K, x1 = 0.1559 | 1122.35
293.15 K, x1 = 0.206 | 1145.51
293.15 K, x1 = 0.256 | 1164.09
293.15 K, x1 = 0.3311 | 1185.75
293.15 K, x1 = 0.4012 | 1201.28
293.15 K, x1 = 0.4907 | 1216.63
293.15 K, x1 = 0.5828 | 1228.62
293.15 K, x1 = 0.6857 | 1239.29
293.15 K, x1 = 0.7494 | 1244.78
293.15 K, x1 = 0.8101 | 1249.51
293.15 K, x1 = 0.8528 | 1252.47
293.15 K, x1 = 0.882 | 1254.43
293.15 K, x1 = 0.9143 | 1256.38
293.15 K, x1 = 0.9408 | 1257.87
293.15 K, x1 = 0.9578 | 1258.81
293.15 K, x1 = 0.9792 | 1259.97
293.15 K, x1 = 0.9895 | 1260.49
293.15 K, x1 = 1 | 1260.99
298.15 K, x1 = 0.00209 | 999.49
